Numbers after ± are expanded uncertainties. Blank lines part the entries; values can stand above or below the compound they belong to.
Assays:
[1] = 298.15 K, Liquid; for electrical conductivity: 101 kPa, Alternating current cell with electrodes; for viscosity / mass density: 101.33 kPa; for viscosity: Cone and plate viscometry; for mass density: Pycnometric method
[2] = wn = mass fraction of the nth substance listed; settings: 298.15 K, 101 kPa, Liquid, Alternating current cell with electrodes

electrical conductivity [1]: 0.586 ± 0.047 S/m
viscosity [1]: 18 mPa·s
mass density [1]: 1014.4 ± 60 kg/m3
SMILES: CC[NH+](C(C)C)C(C)C.O=C[O-] [ethyldiisopropylammonium formate]

electrical conductivity ([2]; w2 = 0): 0.586 ± 0.047 S/m
electrical conductivity ([2]; w2 = 0.0625): 0.88 ± 0.07 S/m
electrical conductivity ([2]; w2 = 0.1176): 1.13 ± 0.091 S/m
electrical conductivity ([2]; w2 = 0.1667): 1.39 ± 0.11 S/m
electrical conductivity ([2]; w2 = 0.2105): 1.67 ± 0.13 S/m
electrical conductivity ([2]; w2 = 0.25): 1.96 ± 0.16 S/m
electrical conductivity ([2]; w2 = 0.3182): 2.4 ± 0.19 S/m
electrical conductivity ([2]; w2 = 0.3478): 2.63 ± 0.21 S/m
electrical conductivity ([2]; w2 = 0.4231): 3.11 ± 0.25 S/m
electrical conductivity ([2]; w2 = 0.4643): 3.36 ± 0.27 S/m
electrical conductivity ([2]; w2 = 0.5): 3.51 ± 0.28 S/m
electrical conductivity ([2]; w2 = 0.5588): 3.86 ± 0.31 S/m
electrical conductivity ([2]; w2 = 0.5833): 3.93 ± 0.31 S/m
electrical conductivity ([2]; w2 = 0.6053): 3.96 ± 0.32 S/m
electrical conductivity ([2]; w2 = 0.625): 3.97 ± 0.32 S/m
electrical conductivity ([2]; w2 = 0.6429): 3.97 ± 0.32 S/m
electrical conductivity ([2]; w2 = 0.6591): 3.96 ± 0.32 S/m
electrical conductivity ([2]; w2 = 0.7): 3.97 ± 0.32 S/m
electrical conductivity ([2]; w2 = 0.7115): 3.97 ± 0.32 S/m
electrical conductivity ([2]; w2 = 0.7222): 3.96 ± 0.32 S/m
SMILES: CC[NH+](C(C)C)C(C)C.O=C[O-] [ethyldiisopropylammonium formate] + O

electrical conductivity [1]: 0.594 ± 0.048 S/m
viscosity [1]: 30.2 mPa·s
mass density [1]: 1054.3 ± 60 kg/m3
SMILES: C1CC[NH2+]C1.CC(=O)[O-] [pyrrolidinium acetate]

electrical conductivity ([2]; w2 = 0): 0.594 ± 0.048 S/m
electrical conductivity ([2]; w2 = 0.0474): 0.685 ± 0.055 S/m
electrical conductivity ([2]; w2 = 0.0906): 0.716 ± 0.057 S/m
electrical conductivity ([2]; w2 = 0.1661): 1.04 ± 0.083 S/m
electrical conductivity ([2]; w2 = 0.1994): 1.11 ± 0.089 S/m
electrical conductivity ([2]; w2 = 0.2585): 1.53 ± 0.12 S/m
electrical conductivity ([2]; w2 = 0.3095): 1.93 ± 0.15 S/m
electrical conductivity ([2]; w2 = 0.3539): 2.32 ± 0.18 S/m
electrical conductivity ([2]; w2 = 0.393): 2.64 ± 0.21 S/m
electrical conductivity ([2]; w2 = 0.4585): 3.24 ± 0.26 S/m
electrical conductivity ([2]; w2 = 0.499): 3.52 ± 0.28 S/m
electrical conductivity ([2]; w2 = 0.5546): 3.92 ± 0.31 S/m
electrical conductivity ([2]; w2 = 0.599): 4.09 ± 0.33 S/m
electrical conductivity ([2]; w2 = 0.6543): 4.3 ± 0.34 S/m
electrical conductivity ([2]; w2 = 0.7007): 4.37 ± 0.35 S/m
electrical conductivity ([2]; w2 = 0.7554): 4.43 ± 0.35 S/m
electrical conductivity ([2]; w2 = 0.8033): 4.23 ± 0.34 S/m
electrical conductivity ([2]; w2 = 0.8328): 4.02 ± 0.32 S/m
SMILES: C1CC[NH2+]C1.CC(=O)[O-] [pyrrolidinium acetate] + O

electrical conductivity [1]: 3.29 ± 0.26 S/m
viscosity [1]: 2.5 mPa·s
SMILES: C1CC[NH2+]C1.O=C[O-] [pyrrolidinium formate]

electrical conductivity ([2]; w2 = 0): 3.29 ± 0.26 S/m
electrical conductivity ([2]; w2 = 0.0251): 4.01 ± 0.32 S/m
electrical conductivity ([2]; w2 = 0.0501): 4.44 ± 0.35 S/m
electrical conductivity ([2]; w2 = 0.0907): 4.95 ± 0.4 S/m
electrical conductivity ([2]; w2 = 0.1666): 5.99 ± 0.48 S/m
electrical conductivity ([2]; w2 = 0.2304): 6.71 ± 0.54 S/m
electrical conductivity ([2]; w2 = 0.2853): 7.2 ± 0.6 S/m
electrical conductivity ([2]; w2 = 0.3329): 7.54 ± 0.6 S/m
electrical conductivity ([2]; w2 = 0.3745): 7.73 ± 0.62 S/m
electrical conductivity ([2]; w2 = 0.4113): 7.83 ± 0.63 S/m
electrical conductivity ([2]; w2 = 0.4439): 7.83 ± 0.63 S/m
electrical conductivity ([2]; w2 = 0.4995): 7.77 ± 0.62 S/m
electrical conductivity ([2]; w2 = 0.5647): 7.33 ± 0.59 S/m
electrical conductivity ([2]; w2 = 0.5828): 7.04 ± 0.56 S/m
electrical conductivity ([2]; w2 = 0.6662): 6.36 ± 0.51 S/m
electrical conductivity ([2]; w2 = 0.7055): 5.92 ± 0.47 S/m
electrical conductivity ([2]; w2 = 0.7496): 5.36 ± 0.43 S/m
electrical conductivity ([2]; w2 = 0.7917): 4.48 ± 0.36 S/m
electrical conductivity ([2]; w2 = 0.8607): 3.18 ± 0.25 S/m
electrical conductivity ([2]; w2 = 0.9018): 2.13 ± 0.17 S/m
electrical conductivity ([2]; w2 = 0.9106): 1.88 ± 0.15 S/m
SMILES: C1CC[NH2+]C1.O=C[O-] [pyrrolidinium formate] + O

electrical conductivity [1]: 0.186 ± 0.015 S/m
mass density [1]: 972.1 ± 60 kg/m3
SMILES: C1CC[NH2+]C1.CCCCCCC(=O)[O-] [pyrrolidinium heptanoate]

The next lines start with the compound.

SMILES: Cc1ccc[n+](C)c1C.O=C[O-] [1,2,3-trimethylpyridinium formate]
electrical conductivity [1]: 0.68 ± 0.054 S/m
viscosity [1]: 10 mPa·s
mass density [1]: 1167.6 ± 60 kg/m3

SMILES: Cc1ccc[n+](C)c1C.O=C[O-] [1,2,3-trimethylpyridinium formate] + O
electrical conductivity ([2]; w2 = 0): 0.68 ± 0.054 S/m
electrical conductivity ([2]; w2 = 0.0476): 0.837 ± 0.067 S/m
electrical conductivity ([2]; w2 = 0.0909): 0.963 ± 0.077 S/m
electrical conductivity ([2]; w2 = 0.1666): 1.33 ± 0.11 S/m
electrical conductivity ([2]; w2 = 0.1999): 1.48 ± 0.12 S/m
electrical conductivity ([2]; w2 = 0.2592): 1.88 ± 0.15 S/m
electrical conductivity ([2]; w2 = 0.3103): 2.31 ± 0.18 S/m
electrical conductivity ([2]; w2 = 0.3547): 2.69 ± 0.21 S/m
electrical conductivity ([2]; w2 = 0.4117): 3.23 ± 0.26 S/m
electrical conductivity ([2]; w2 = 0.4594): 3.62 ± 0.29 S/m
electrical conductivity ([2]; w2 = 0.4999): 3.95 ± 0.32 S/m
electrical conductivity ([2]; w2 = 0.5555): 4.37 ± 0.35 S/m
electrical conductivity ([2]; w2 = 0.5999): 4.65 ± 0.37 S/m
electrical conductivity ([2]; w2 = 0.6551): 4.74 ± 0.38 S/m
electrical conductivity ([2]; w2 = 0.7014): 4.75 ± 0.38 S/m
electrical conductivity ([2]; w2 = 0.7499): 4.75 ± 0.38 S/m
electrical conductivity ([2]; w2 = 0.7999): 4.51 ± 0.36 S/m
electrical conductivity ([2]; w2 = 0.8571): 3.85 ± 0.31 S/m
electrical conductivity ([2]; w2 = 0.9): 3.13 ± 0.25 S/m
electrical conductivity ([2]; w2 = 0.95): 1.93 ± 0.15 S/m

SMILES: Cc1cccc[n+]1C.O=C[O-] [1,2-dimethylpyridinium formate]
electrical conductivity [1]: 1.04 ± 0.083 S/m
viscosity [1]: 2.61 mPa·s
mass density [1]: 1020.9 ± 60 kg/m3

SMILES: Cc1cccc[n+]1C.O=C[O-] [1,2-dimethylpyridinium formate] + O
electrical conductivity ([2]; w2 = 0): 1.04 ± 0.083 S/m
electrical conductivity ([2]; w2 = 0.051): 1.37 ± 0.11 S/m
electrical conductivity ([2]; w2 = 0.0908): 1.64 ± 0.13 S/m
electrical conductivity ([2]; w2 = 0.1665): 2.21 ± 0.18 S/m
electrical conductivity ([2]; w2 = 0.2854): 3.27 ± 0.26 S/m
electrical conductivity ([2]; w2 = 0.333): 3.77 ± 0.3 S/m
electrical conductivity ([2]; w2 = 0.4114): 4.52 ± 0.36 S/m
electrical conductivity ([2]; w2 = 0.4441): 4.74 ± 0.38 S/m
electrical conductivity ([2]; w2 = 0.4997): 5.26 ± 0.42 S/m
electrical conductivity ([2]; w2 = 0.5451): 5.56 ± 0.44 S/m
electrical conductivity ([2]; w2 = 0.6151): 5.98 ± 0.48 S/m
electrical conductivity ([2]; w2 = 0.6549): 6.16 ± 0.49 S/m
electrical conductivity ([2]; w2 = 0.7056): 6.23 ± 0.5 S/m
electrical conductivity ([2]; w2 = 0.7617): 6 ± 0.48 S/m
electrical conductivity ([2]; w2 = 0.7998): 5.68 ± 0.45 S/m
electrical conductivity ([2]; w2 = 0.857): 4.85 ± 0.39 S/m
electrical conductivity ([2]; w2 = 0.8748): 4.51 ± 0.36 S/m
electrical conductivity ([2]; w2 = 0.8888): 4.21 ± 0.34 S/m
electrical conductivity ([2]; w2 = 0.8999): 3.93 ± 0.31 S/m
electrical conductivity ([2]; w2 = 0.909): 3.7 ± 0.3 S/m

SMILES: CCCC(C)[NH3+].O=C[O-] (centres undefined) [2-pentanaminium formate]
electrical conductivity [1]: 0.036 ± 0.003 S/m
mass density [1]: 1163 ± 60 kg/m3

SMILES: CCCC(C)[NH3+].O=C[O-] (centres undefined) [2-pentanaminium formate] + O
electrical conductivity ([2]; w2 = 0): 0.036 ± 0.003 S/m
electrical conductivity ([2]; w2 = 0.056): 0.121 ± 0.01 S/m
electrical conductivity ([2]; w2 = 0.1005): 0.197 ± 0.016 S/m
electrical conductivity ([2]; w2 = 0.1623): 0.342 ± 0.027 S/m
electrical conductivity ([2]; w2 = 0.2793): 0.847 ± 0.068 S/m
electrical conductivity ([2]; w2 = 0.3676): 1.38 ± 0.11 S/m
electrical conductivity ([2]; w2 = 0.4366): 1.92 ± 0.15 S/m
electrical conductivity ([2]; w2 = 0.5375): 2.8 ± 0.22 S/m
electrical conductivity ([2]; w2 = 0.6078): 3.3 ± 0.26 S/m
electrical conductivity ([2]; w2 = 0.6595): 3.51 ± 0.28 S/m
electrical conductivity ([2]; w2 = 0.6992): 3.6 ± 0.29 S/m
electrical conductivity ([2]; w2 = 0.7561): 3.57 ± 0.29 S/m
electrical conductivity ([2]; w2 = 0.7999): 3.4 ± 0.27 S/m
electrical conductivity ([2]; w2 = 0.88): 2.93 ± 0.23 S/m
electrical conductivity ([2]; w2 = 0.9): 2.73 ± 0.22 S/m
electrical conductivity ([2]; w2 = 0.91): 2.38 ± 0.19 S/m
electrical conductivity ([2]; w2 = 0.925): 2.13 ± 0.17 S/m
electrical conductivity ([2]; w2 = 0.933): 1.94 ± 0.15 S/m
electrical conductivity ([2]; w2 = 0.943): 1.71 ± 0.14 S/m
electrical conductivity ([2]; w2 = 0.954): 1.47 ± 0.12 S/m
electrical conductivity ([2]; w2 = 0.967): 1.13 ± 0.09 S/m
electrical conductivity ([2]; w2 = 0.982): 0.677 ± 0.054 S/m
